The values below are quoted from earlier work in US8697043B1, “Odor suppression of volatile organic analgesic compounds and method of use” (Chattem, Inc., priority 2013, dated 2014).

The conditions of data set [1]: at 25° C.

Molecules are shown by their SMILES.

Regarding `CC12CCC(CC1=O)C2(C)C` (centres unmarked) [camphor], the Solubility in water result was “neither menthol nor camphor are significantly soluble in water”. Moreover, in data set [1], the Vapor pressure was 86.7 kPa.

Turning to `CC1CCC(C(C)C)C(O)C1` (centres unmarked) [Menthol], the Solubility in water entry is “neither menthol nor camphor are significantly soluble in water”. Moreover, in data set [1], the Vapor pressure is on record as 8.5 kPa.

In the case of `CCO` [ethanol], in data set [1], the Vapor pressure is reported as 5.9 kPa.
